Reference: PubChem BioAssay (NCI)
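GI50 marks 50% less growth. The concentration for full growth arrest is given as TGI.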

How the values were obtained:
Test in all cases: NCI anticancer screen, dose series, 384-well format
NCI-H226 lung = system: NCI-H226 lung
OVCAR-4 ovarian = system: OVCAR-4 ovarian
BT-549 breast = system: BT-549 breast
KM12 colon = system: KM12 colon
IGROV1 ovarian = system: IGROV1 ovarian
OVCAR-3 ovarian = system: OVCAR-3 ovarian
786-0 renal = system: 786-0 renal
NCI-H322M lung = system: NCI-H322M lung
SK-OV-3 ovarian = system: SK-OV-3 ovarian
SK-MEL-28 melanoma = system: SK-MEL-28 melanoma
NCI/ADR-RES ovarian = system: NCI/ADR-RES ovarian
UACC-62 melanoma = system: UACC-62 melanoma
NCI-H23 lung = system: NCI-H23 lung
SK-MEL-2 melanoma = system: SK-MEL-2 melanoma
T-47D breast = system: T-47D breast
SR leukemia = system: SR leukemia
SK-MEL-5 melanoma = system: SK-MEL-5 melanoma
M14 melanoma = system: M14 melanoma
LOX IMVI melanoma = system: LOX IMVI melanoma
HOP-62 NSCLC = system: HOP-62 NSCLC
SF-295 CNS = system: SF-295 CNS
HCC-2998 colon = system: HCC-2998 colon
DU-145 prostate = system: DU-145 prostate
MDA-MB-231 breast = system: MDA-MB-231 breast
MDA-MB-468 breast = system: MDA-MB-468 breast
A549 NSCLC = system: A549 NSCLC
K-562 leukemia = system: K-562 leukemia
MDA-MB-435 melanoma = system: MDA-MB-435 melanoma
SN12C renal = system: SN12C renal
RPMI-8226 leukemia = system: RPMI-8226 leukemia
A498 renal = system: A498 renal
SW-620 colon = system: SW-620 colon
COLO 205 colon = system: COLO 205 colon
HT29 colon = system: HT29 colon
U251 glioblastoma = system: U251 glioblastoma
SF-539 CNS = system: SF-539 CNS
HOP-92 NSCLC = system: HOP-92 NSCLC
MOLT-4 leukemia = system: MOLT-4 leukemia
EKVX NSCLC = system: EKVX NSCLC
HL-60(TB) leukemia = system: HL-60(TB) leukemia
ACHN renal = system: ACHN renal
HS 578T breast = system: HS 578T breast
UACC-257 melanoma = system: UACC-257 melanoma
OVCAR-8 ovarian = system: OVCAR-8 ovarian
SNB-75 CNS = system: SNB-75 CNS
HCT-116 colon = system: HCT-116 colon
MCF7 breast = system: MCF7 breast
MALME-3M melanoma = system: MALME-3M melanoma
TK-10 renal = system: TK-10 renal
PC-3 prostate = system: PC-3 prostate
OVCAR-5 ovarian = system: OVCAR-5 ovarian
CCRF-CEM leukemia = system: CCRF-CEM leukemia
NCI-H460 NSCLC = system: NCI-H460 NSCLC
HCT-15 colon = system: HCT-15 colon
NCI-H522 lung = system: NCI-H522 lung
RXF 393 renal = system: RXF 393 renal
CAKI-1 renal = system: CAKI-1 renal
SNB-19 CNS = system: SNB-19 CNS
SF-268 CNS = system: SF-268 CNS

SMILES: C[C@@H]1COCCN1c1cc(C2(S(C)(=N)=O)CC2)nc(-c2ccnc3[nH]ccc23)n1 (stereo partly drawn)
- GI50 (NCI-H226 lung): 8.14 µM
- TGI (NCI-H226 lung): 46.2 µM
- GI50 (OVCAR-4 ovarian): 2 µM
- TGI (OVCAR-4 ovarian): 9.93 µM
- GI50 (BT-549 breast): 1.93 µM
- TGI (BT-549 breast): 9.01 µM
- GI50 (KM12 colon): 1.63 µM
- TGI (KM12 colon): 22.3 µM
- GI50 (IGROV1 ovarian): 2.67 µM
- TGI (IGROV1 ovarian): 23 µM
- GI50 (OVCAR-3 ovarian): 3.03 µM
- TGI (OVCAR-3 ovarian): 18.1 µM
- GI50 ([…]-0 renal): 1.82 µM
- TGI (786-0 renal): 5.72 µM
- GI50 (NCI-H322M lung): 1.11 µM
- TGI (NCI-H322M lung): 5.59 µM
- GI50 (SK-OV-3 ovarian): 1.78 µM
- TGI (SK-OV-3 ovarian): 18.9 µM
- GI50 (SK-MEL-28 melanoma): 11.6 µM
- TGI (SK-MEL-28 melanoma): 24.8 µM
- GI50 (NCI/ADR-RES ovarian): 17 µM
- TGI (NCI/ADR-RES ovarian): 53.1 µM
- GI50 (UACC-62 melanoma): 3.01 µM
- TGI (UACC-62 melanoma): 14.4 µM
- GI50 (NCI-H23 lung): 1.24 µM
- TGI (NCI-H23 lung): 3.26 µM
- GI50 (SK-MEL-2 melanoma): 0.685 µM
- TGI (SK-MEL-2 melanoma): 2.46 µM
- GI50 (T-47D breast): 8.7 µM
- TGI (T-47D breast): > 43.1 µM
- GI50 (SR leukemia): 0.153 µM
- TGI (SR leukemia): 0.45 µM
- GI50 (SK-MEL-5 melanoma): 3.62 µM
- TGI (SK-MEL-5 melanoma): 12.8 µM
- GI50 (M14 melanoma): 1.64 µM
- TGI (M14 melanoma): 4.36 µM
- GI50 (LOX IMVI melanoma): 1.29 µM
- TGI (LOX IMVI melanoma): 8.31 µM
- GI50 (HOP-62 NSCLC): 1.34 µM
- TGI (HOP-62 NSCLC): 3.58 µM
- GI50 (SF-295 CNS): 2.47 µM
- TGI (SF-295 CNS): 9.13 µM
- GI50 (HCC-2998 colon): 0.967 µM
- TGI (HCC-2998 colon): 3.58 µM
- GI50 (DU-145 prostate): 3.17 µM
- TGI (DU-145 prostate): 14 µM
- GI50 (MDA-MB-231 breast): 5.68 µM
- TGI (MDA-MB-231 breast): > 44.6 µM
- GI50 (MDA-MB-468 breast): 4.8 µM
- TGI (MDA-MB-468 breast): 18.6 µM
- GI50 (A549 NSCLC): 3.54 µM
- TGI (A549 NSCLC): > 44.4 µM
- GI50 (K-562 leukemia): 2.35 µM
- TGI (K-562 leukemia): 6.73 µM
- GI50 (MDA-MB-435 melanoma): 3.71 µM
- TGI (MDA-MB-435 melanoma): 11.3 µM
- GI50 (SN12C renal): 2.96 µM
- TGI (SN12C renal): 17.1 µM
- GI50 (RPMI-8226 leukemia): 1.4 µM
- TGI (RPMI-8226 leukemia): 3.2 µM
- GI50 (A498 renal): 0.637 µM
- TGI (A498 renal): 2.25 µM
- GI50 (SW-620 colon): 2.77 µM
- TGI (SW-620 colon): 50.4 µM
- GI50 (COLO 205 colon): 9.75 µM
- TGI (COLO 205 colon): 31.1 µM
- GI50 (HT29 colon): 3.55 µM
- TGI (HT29 colon): 15.8 µM
- GI50 (U251 glioblastoma): 4.85 µM
- TGI (U251 glioblastoma): 29 µM
- GI50 (SF-539 CNS): 1.29 µM
- TGI (SF-539 CNS): 5.89 µM
- GI50 (HOP-92 NSCLC): 2.04 µM
- TGI (HOP-92 NSCLC): > 28.4 µM
- GI50 (MOLT-4 leukemia): 1.02 µM
- TGI (MOLT-4 leukemia): 2.26 µM
- GI50 (EKVX NSCLC): 4.78 µM
- TGI (EKVX NSCLC): 19.9 µM
- GI50 (HL-60(TB) leukemia): 1 µM
- TGI (HL-60(TB) leukemia): 2.53 µM
- GI50 (ACHN renal): 0.71 µM
- TGI (ACHN renal): 3.6 µM
- GI50 (HS 578T breast): 2.45 µM
- TGI (HS 578T breast): 12 µM
- GI50 (UACC-257 melanoma): 13 µM
- TGI (UACC-257 melanoma): 27.5 µM
- GI50 (OVCAR-8 ovarian): 5.49 µM
- TGI (OVCAR-8 ovarian): 18 µM
- GI50 (SNB-75 CNS): 4.52 µM
- TGI (SNB-75 CNS): 14.3 µM
- GI50 (HCT-116 colon): 2.54 µM
- TGI (HCT-116 colon): > 100 µM
- GI50 (MCF7 breast): 0.615 µM
- TGI (MCF7 breast): > 39.4 µM
- GI50 (MALME-3M melanoma): 5.67 µM
- TGI (MALME-3M melanoma): 16.8 µM
- GI50 (TK-10 renal): 0.756 µM
- TGI (TK-10 renal): 3.58 µM
- GI50 (PC-3 prostate): 5.4 µM
- TGI (PC-3 prostate): 31.3 µM
- GI50 (OVCAR-5 ovarian): 3.98 µM
- TGI (OVCAR-5 ovarian): 22.4 µM
- GI50 (CCRF-CEM leukemia): 0.638 µM
- TGI (CCRF-CEM leukemia): 1.9 µM
- GI50 (NCI-H460 NSCLC): 0.541 µM
- TGI (NCI-H460 NSCLC): 4.87 µM
- GI50 (HCT-15 colon): 2.21 µM
- TGI (HCT-15 colon): 13.7 µM
- GI50 (NCI-H522 lung): 9.39 µM
- TGI (NCI-H522 lung): 25 µM
- GI50 (RXF 393 renal): 2.67 µM
- TGI (RXF 393 renal): 9.58 µM
- GI50 (CAKI-1 renal): 2.84 µM
- TGI (CAKI-1 renal): > 40 µM
- GI50 (SNB-19 CNS): 6.13 µM
- TGI (SNB-19 CNS): 57.3 µM
- GI50 (SF-268 CNS): 6.17 µM
- TGI (SF-268 CNS): 24 µM
